Test results as given in patent EP1216701A1, “Process to increase the concentration of meiosis-activating sterols (MAS) in the cholesterol synthesis and the use of potent inhibitors in the process” (Schering Aktiengesellschaft, priority 2000, dated 2002).

Key:
Δ24-reductase = molecular target: T1, Δ24-reductase (Homo sapiens, UniProt Q15392); test: Δ24-reductase assay (conversion of lanosterol to dihydrolanosterol in the presence of miconazole); assay type: cell-based; settings: HepG2 cells; conversion of lanosterol to dihydrolanosterol with added miconazole
T1 construct: endogenous in cells; host or cells: HepG2
T1 sequence (Q15392 23-516): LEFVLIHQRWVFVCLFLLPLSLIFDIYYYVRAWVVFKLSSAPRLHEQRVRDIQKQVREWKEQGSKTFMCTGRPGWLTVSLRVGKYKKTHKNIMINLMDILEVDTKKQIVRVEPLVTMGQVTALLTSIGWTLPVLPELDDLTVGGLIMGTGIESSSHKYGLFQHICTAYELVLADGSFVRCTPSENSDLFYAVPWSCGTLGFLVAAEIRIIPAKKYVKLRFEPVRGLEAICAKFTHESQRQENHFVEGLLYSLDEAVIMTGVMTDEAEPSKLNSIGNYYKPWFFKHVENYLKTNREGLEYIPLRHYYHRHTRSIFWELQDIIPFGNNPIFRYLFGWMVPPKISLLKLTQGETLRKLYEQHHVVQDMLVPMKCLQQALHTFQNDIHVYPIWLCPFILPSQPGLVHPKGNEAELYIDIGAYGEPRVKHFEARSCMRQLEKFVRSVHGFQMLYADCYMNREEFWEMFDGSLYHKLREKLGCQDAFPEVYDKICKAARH
Description: HepG2 cells were incubated for 12 h with 10 µM simvastatin (a kind gift from M. Stapff (MSD, Germany)) to deplete cholesterol precursors. Thereafter, the medium was changed to one containing 10 µM simvastatin, 10 µM miconazole (an inhibitor of 14α-demethylation) and 6 µg/dish lanosterol. After 12 h incubation, neutral sterols were extracted as described above, and the samples were monitored for lanosterol (m/z 498 (M^+) and m/z 393 (M-TMSOH-CH3)) and dihydrolanosterol (m/z 500 (M^+) and m/z 395 (M-TMSOH-CH3)) by GC/MS. Dihydrolanosterol was quantified by comparing the ratio of SIM abundances at m/z 395 and 370 (epicoprostanol) against a standard curve constructed from SIM results on mixtures of authentic dihydrolanosterol and epicoprostanol. Desmosterol was quantified analogously by SIM.

HepG2 cells [1] = test: Accumulation of cholesterol precursors / C29-sterols (MAS) in HepG2 cells, GC/MS (SIM); assay type: cell-based, Human; settings: HepG2 cells; for Dienol (m/z 486) / Enol T-MAS (m/z 484) / Trienol FF-MAS (m/z 482): ± SD; for suppression of the Δ24 reduction step (accumulation of desmosterol): absence of miconazole, 10 µM potent inhibitors or 1 µM tamoxifen for 12 h; for FF-MAS Dimethylst.-trien (482 m/z) / Methylst.-dien (470 m/z) / T-MAS Dimethylst.-dien (484 m/z): bile acids 160 µM, 12-h, mean ± SD, ratio to internal standard epicoprostanol
Description: (§1) Human hepatoma HepG2 cells were cultured to confluency in 60-mm dishes in phenol-red-free Dulbecco's modified Eagle's medium (DMEM) containing Pen-Strep (100 µg/ml), glucose (10 mM), sodium bicarbonate (45 mM) and glutamine (4 mM) supplemented with 10% fetal calf serum as described previously (24). At the beginning of the experiment the medium was changed to serum-free DMEM supplemented with 10% lipid-free "controlled process serum replacement" (CPSR-1). Compounds were added from ethanolic stock solutions to produce final ethanol concentrations of 0.1-0.3% v/v. Controls received the same amount of ethanol. Aminotriazole was added in an aqueous solution. Slices of rat testis (25 µm; 25-50 mg wet weight) were incubated under the same conditions in a shaking water bath (37°C). For isotopomer spectral analysis (ISA) of lathosterol, 1-^13C-acetate was added in an aqueous solution to a final concentration of 1 mM.
(§2) Cells were washed three times with ice cold PBS (pH 7.4) (once with 2 mg/ml BSA and twice with PBS alone). Epicoprostanol (1 µg in 50 µl of hexane) was added as internal standard to each sample. Sterols were extracted in hexane/isopropanol (3:2 v/v; two times with 4 ml). After drying under nitrogen and alkaline hydrolysis (1 N NaOH in 80% ethanol, 1.5 h at 70°C), the sterols were extracted with cyclohexane (two times with 3 ml). After drying under nitrogen, sterols were converted to their trimethylsilyl (TMS) derivatives by adding 100 µl bis(trimethylsilyl)trifluoracetamide (Pierce)/n-decane (1:1; v/v) and heating for 1 h at 70°C in a conical glass tube. This solution (1-2 µl) was used for gas-chromatography/mass-spectrometry (GC/MS). Rat testes (0.05-0.15 g) were homogenized manually, and lipids were extracted in hexane/isopropanol (3:2 v/v; two times with 4 ml). The extracts were deproteinized with acetone (3 ml) and processed as described above. The observed sterol levels in testis were normalized to correspond to 0.1 g of tissue (wet weight).
(§3) Gas-chromatography was done in the splitless mode with temperature programming as follows: 150°C for 1 min, followed by 20°C/min up to 260°C and 10°C/min up to 280°C (hold for 15 min). Mass spectral data were collected either in the full-scan mode (m/z 50-550) or by selective ion monitoring (SIM). For SIM analyses the electron multiplier voltage was raised by 300 V after the elution of lathosterol to increase the sensitivity of detection for lanosterol, dihydrolanosterol, methylsterols, dimethylsterols and plant sterols. The internal standard epicoprostanol was monitored at m/z 370. […] Peak integration was performed manually, and sterols were quantified from SIM analyses against the internal standard. Unless stated otherwise, MAS amounts are given as a percentage of the control.

liver slices = test: Influence of bile acids on methylsterols and dimethylsterols in liver slices; assay type: cell-based; settings: bile acids 160 µM for 9-h, n=2 for UDCA, CDCA, DCA, n=3 for CA and LCA, ratio to campesterol
Description: as §2, §3

HepG2 cells [2] = test: Isotopomer spectral analysis (ISA) of flux of 13C-acetate to lathosterol and cholesterol; assay type: cell-based, Human; settings: 10 µM, 12 h, 1 mM 1-13C-acetate
Description: as §1
Analyses were performed on a Hewlett-Packard GC/MS system (5890 series II GC interfaced to a 5971 mass selective detector) equipped with a DB-XLB column (30 m x 0.25 mm i.d. x 0.25 µm film; J&W). Gas-chromatography was done in the splitless mode with temperature programming as follows: 150°C for 1 min, followed by 20°C/min up to 260°C and 10°C/min up to 280°C (hold for 15 min). Mass spectral data were collected either in the full-scan mode (m/z 50-550) or by selective ion monitoring (SIM). For SIM analyses the electron multiplier voltage was raised by 300 V after the elution of lathosterol to increase the sensitivity of detection for lanosterol, dihydrolanosterol, methylsterols, dimethylsterols and plant sterols. The internal standard epicoprostanol was monitored at m/z 370. In unlabeled experiments, cholesterol precursors and plant sterols were monitored by the following ions: desmosterol (m/z 456; 441 and 351); Δ8-cholestenol (m/z 458); lathosterol (m/z 458); monounsaturated methylsterols (m/z 472); diunsaturated methylsterols (m/z 470); monounsaturated dimethylsterols (m/z 486); diunsaturated dimethylsterols (m/z 484); triunsaturated dimethylsterols (m/z 482); lanosterol (m/z 498 and 393) and dihydrolanosterol (m/z 500 and 395). Peak integration was performed manually, and sterols were quantified from SIM analyses against the internal standard. Unless stated otherwise, MAS amounts are given as a percentage of the control. When 1-^13C-acetate was used in the culture medium for ISA, up to 10 ions (M+0- M+10) were monitored for the TMS derivatives of lathosterol (m/z 458-468), T-MAS (m/z 484-494) and FF-MAS (m/z 482-492).
ISA was carried out as described previously (25) by incubating cells with 1-13C-acetate. The isotopomer distribution in sterols synthesized from 1-^13C-acetate provided the fractional synthesis rate g(t) of the product and the enrichment D of the labeled precursor pool. These parameters were calculated by nonlinear regression analysis as described previously (25,26). Because here we used the molecular ions containing the TMS group for the ISA calculations, the ISA program was modified to correct for the additional C, H and Si atoms from the derivatization reagent. Statistical differences were assessed by Student's t-test and considered significant for P<0.05.

[3] = Conc. 10 µM (combinations 10 + 10 µM), 12 h, n=2
[4] = aminotriazole 20000 µM, tamoxifen 1 µM, combination 20000 + 1 µM, incubation time not clearly stated
[5] = Conc. 1 µM (combinations 1 + 1 µM), 24 h, n=3

CC(=O)[C@@]1(O)CC[C@H]2[C@@H]3CC=C4C[C@@H](O)CC[C@]4(C)[C@H]3CC[C@@]21C [17α-OH-Pregnenolone, 17α-Hydroxy-pregnenolone]
order of suppression of Δ24 reduction (Δ24-reductase): pregnenolone > progesterone > 17α-OH-pregnenolone >> 17α-OH-progesterone
Dienol (m/z 486) (HepG2 cells [1]; [3]): 52 ± 6 % of control
Enol T-MAS (m/z 484) (HepG2 cells [1]; [3]): 780 ± 57 % of control
Trienol FF-MAS (m/z 482) (HepG2 cells [1]; [3]): 242 ± 19 % of control
suppression of the Δ24 reduction step (accumulation of desmosterol) (HepG2 cells [1]): strongly suppressed

Nc1nc[nH]n1 [Aminotriazole]
Dienol (m/z 486) (HepG2 cells [1]; [4]): 725 ± 65 % of control
Enol T-MAS (m/z 484) (HepG2 cells [1]; [4]): 610 ± 20 % of control
Trienol FF-MAS (m/z 482) (HepG2 cells [1]; [4]): 229 ± 18 % of control

C[C@H](CCC(=O)O)[C@H]1CC[C@H]2[C@@H]3[C@H](O)C[C@@H]4C[C@H](O)CC[C@]4(C)[C@H]3CC[C@]12C [CDCA, Chenodeoxycholic acid]
FF-MAS Dimethylst.-trien (482 m/z) (liver slices): 128 % of control
Methylst.-dien (470 m/z) (liver slices): 181 % of control
T-MAS Dimethylst.-dien (484 m/z) (liver slices): 296 % of control
FF-MAS Dimethylst.-trien (482 m/z) (HepG2 cells [1]; n=3): 197 ± 10 % of control
Methylst.-dien (470 m/z) (HepG2 cells [1]; n=3): 187 ± 5 % of control
T-MAS Dimethylst.-dien (484 m/z) (HepG2 cells [1]; n=3): 234 ± 11 % of control

C[C@H](CCC(=O)O)[C@H]1CC[C@H]2[C@@H]3CC[C@@H]4C[C@H](O)CC[C@]4(C)[C@H]3C[C@H](O)[C@]12C [DCA, Deoxycholic acid]
FF-MAS Dimethylst.-trien (482 m/z) (liver slices): 103 % of control
Methylst.-dien (470 m/z) (liver slices): 144 % of control
T-MAS Dimethylst.-dien (484 m/z) (liver slices): 210 % of control
FF-MAS Dimethylst.-trien (482 m/z) (HepG2 cells [1]; n=3): 226 ± 17 % of control
Methylst.-dien (470 m/z) (HepG2 cells [1]; n=3): 211 ± 6 % of control
T-MAS Dimethylst.-dien (484 m/z) (HepG2 cells [1]; n=3): 320 ± 32 % of control

C[C@H](CCC(=O)O)[C@H]1CC[C@H]2[C@@H]3CC[C@@H]4C[C@H](O)CC[C@]4(C)[C@H]3CC[C@]12C [LCA, Lithocholic acid]
FF-MAS Dimethylst.-trien (482 m/z) (liver slices): 91 % of control
Methylst.-dien (470 m/z) (liver slices): 67 % of control
T-MAS Dimethylst.-dien (484 m/z) (liver slices): 172 % of control
FF-MAS Dimethylst.-trien (482 m/z) (HepG2 cells [1]; n=3): 453 ± 88 % of control
Methylst.-dien (470 m/z) (HepG2 cells [1]; n=3): 459 ± 29 % of control
T-MAS Dimethylst.-dien (484 m/z) (HepG2 cells [1]; n=3): 744 ± 155 % of control

CC(=O)[C@H]1CC[C@H]2[C@@H]3CC=C4C[C@@H](O)CC[C@]4(C)[C@H]3CC[C@]12C [Pregnenolone]
order of suppression of Δ24 reduction (Δ24-reductase): pregnenolone > progesterone > 17α-OH-pregnenolone >> 17α-OH-progesterone
Dienol (m/z 486) (HepG2 cells [1]; [5]): 110 ± 9 % of control
Enol T-MAS (m/z 484) (HepG2 cells [1]; [5]): 223 ± 11 % of control
Trienol FF-MAS (m/z 482) (HepG2 cells [1]; [5]): 166 ± 28 % of control
Dienol (m/z 486) (HepG2 cells [1]; [3]): 4 ± 1 % of control
Enol T-MAS (m/z 484) (HepG2 cells [1]; [3]): 308 ± 40 % of control
Trienol FF-MAS (m/z 482) (HepG2 cells [1]; [3]): 213 ± 15 % of control
suppression of the Δ24 reduction step (accumulation of desmosterol) (HepG2 cells [1]): strongly suppressed
lowering of the total amount of lathosterol (HepG2 cells [2]): ca. 50%
reduction of de novo lathosterol synthesis (HepG2 cells [2]): more than 60%

CC/C(=C(\c1ccccc1)c1ccc(OCCN(C)C)cc1)c1ccccc1 [Tamoxifen]
suppression of the Δ24 reduction step (accumulation of desmosterol) (HepG2 cells [1]): strongly suppressed
Dienol (m/z 486) (HepG2 cells [1]; [4]): 34 ± 3 % of control
Enol T-MAS (m/z 484) (HepG2 cells [1]; [4]): 617 ± 47 % of control
Trienol FF-MAS (m/z 482) (HepG2 cells [1]; [4]): 297 ± 41 % of control
